From patent US9505717B2, “Acetic acid ester compound or salt thereof” (Taiho Pharmaceutical Co., Ltd., priority 2012, dated 2016)

System: female SD rats
Experiment: Test Example 1: urethral baseline pressure (intraurethral pressure) in rats after oral administration
Assay type: in vivo, rat
Details: 3 mg/kg oral, 11-week-old female SD rats, n=8, mean for 30 minutes after 8 hours from administration, Student's t-test vs distilled water group, FIG. 1
Method: The compounds of the present invention and comparative compounds were individually orally administered in an amount of 3 mg/kg to 11-week-old female SD rats (test substance-administration groups, n=8 for each group), and distilled water was orally administered as the control to 11-week-old female SD rats (solvent administration group, n=8). As the comparative compounds, 4-(1-methylpiperidyl) 2,2-diphenyl-2-propoxyacetate (Comparative Example 1), 4-(1-methylpiperidyl) 2,2-diphenyl-2-(propoxy-1,1,2,2,3,3,3-d7)acetate (Comparative Example 2), which is a deuterated compound of Comparative Example 1, and 4-piperidyl 2,2-diphenyl-2-propoxyacetate (Comparative Example 3), synthesized according to Patent Literatures 1 to 3, respectively, were used.
Seven and a half hours after administration, each rat was anesthetized by intraperitoneal administration of 1.2 g/kg of urethane. Thereafter, the ureters and the area between the urethra and the bladder were ligated, and a vesical fistula catheter and a catheter for measuring intraurethral pressure were inserted and indwelled in the bladder and the urethra. The catheter for measuring intraurethral pressure was inserted from the external urethral orifice. The other end of each catheter was connected to a corresponding pressure transducer branched into two directions via a corresponding three-way stopcock, and the remaining connecting portion of each three-way stopcock was connected to a corresponding syringe set in a continuous injection device. Intravesical pressure and intraurethral pressure were recorded via a polygraph connected with the pressure transducers. […] Physiological saline was injected into the urethra using the micro syringe pump connected to the urethra at 3 mL/hr, and the changes in intraurethral pressure associated with the rhythmic contraction were recorded.
The mean values of the urethral baseline pressure for the solvent administration group and the test substance-administration groups were calculated, and the results were indicated as mean±SE. […]

| Structure (SMILES) | urethral baseline pressure (effect versus solvent administration group) |
| --- | --- |
| CCCOC(C(=O)OC1CCN(C)CC1)(c1ccccc1)c1ccccc1 [Comparative Example 1, 4-(1-methylpiperidyl) 2,2-diphenyl-2-propoxyacetate] | did not have a significant effect on urethral baseline pressure |
| [2H]C([2H])([2H])C([2H])([2H])C([2H])([2H])OC(C(=O)OC1CCN(C)CC1)(c1ccccc1)c1ccccc1 [Comparative Example 2, 4-(1-methylpiperidyl) 2,2-diphenyl-2-(propoxy-1,1,2,2,3,3,3-d7)acetate] | did not have a significant effect on urethral baseline pressure |
| CCCOC(C(=O)OC1CCNCC1)(c1ccccc1)c1ccccc1 [Comparative Example 3, 4-piperidyl 2,2-diphenyl-2-propoxyacetate] | did not have a significant effect on urethral baseline pressure |
